Laboratory results: article PMC9999251, “Pyrazole-based lamellarin O analogues: synthesis, biological evaluation and structure–activity relationships” (RSC Advances, 2023)

Experiments:
[1] = tested on: HT29 cells; assay: Cell viability (MTT assay), HT29; format: cell-based; conditions: Homo sapiens, HT-29, 96 h treatment, read-out: GI50 ± SD HT29
Method: (§1) SW480 (human colon adenocarcinoma, adherent, epithelial, ATCC number: CCL-228), HT29 (human colon adenocarcinoma, adherent, epithelial, ATCC number: HTB-38), and HCT116 (human colon adenocarcinoma, adherent, epithelial-like, ATCC number: CCL-247) cells were maintained in RPMI-1640 medium (Sigma-Aldrich). Medium was supplemented with heat-inactivated FBS (Biowest), penicillin–streptomycin (Sigma; with 10 000 units penicillin and 10 mg streptomycin per mL in 0.9% NaCl) and L-glutamine (Sigma; 200 mM solution). Cell cultures were cultivated at 37 °C, maintaining a humidified atmosphere consisting of 5% CO2. Gibco™ trypsin–EDTA (0.05%) was used for cell passage.
(§2) To evaluate cell viability, SW480, HT29, and HCT116 cells were harvested from culture flasks by trypsinization and seeded into 96-well plates in 4000 cells per well, 3000 cells per well and 4000 cells per well densities, respectively. After 24 h preincubation period, cells were treated in triplicates with nine different doses of each compound (6a–o and 7a–c) for 96 h. After treatment compound solutions were replaced with MTT solution (MTT reagent in PBS, […]) diluted in a 6 : 1 ratio in non-supplemented RPMI-1640 medium and were additionally incubated for 2 h. After incubation, the medium was removed, and formazan product was dissolved in DMSO. Optical densities were measured at 550 nm with TECAN Infinite® M200 PRO microplate reader using a reference wavelength of 690 nm to correct unspecific absorption. The quantity of viable cells was normalized to untreated controls. The GI50 values were calculated from dose–response curves.

[2] = tested on: HCT116 cells; assay: Cell viability (MTT assay), HCT116; format: cell-based; conditions: Homo sapiens, HCT-116, 96 h treatment, read-out: GI50 ± SD HCT116
Method: as §1, §2

[3] = molecular target: T1, human serum albumin (Homo sapiens, UniProt P02768); assay: Plasma protein binding (PPB), HPLC on albumin-bound stationary phase; format: in vitro ADME; conditions: pH 7.4, binding to human serum albumin, HPLC method
T1 construct: purchased Chiral Technologies, DAICEL Group, Europe SAS, France CHIRALPAK®HAS (50 × 3 mm, 5 μm)
T1 sequence (P02768 25-609): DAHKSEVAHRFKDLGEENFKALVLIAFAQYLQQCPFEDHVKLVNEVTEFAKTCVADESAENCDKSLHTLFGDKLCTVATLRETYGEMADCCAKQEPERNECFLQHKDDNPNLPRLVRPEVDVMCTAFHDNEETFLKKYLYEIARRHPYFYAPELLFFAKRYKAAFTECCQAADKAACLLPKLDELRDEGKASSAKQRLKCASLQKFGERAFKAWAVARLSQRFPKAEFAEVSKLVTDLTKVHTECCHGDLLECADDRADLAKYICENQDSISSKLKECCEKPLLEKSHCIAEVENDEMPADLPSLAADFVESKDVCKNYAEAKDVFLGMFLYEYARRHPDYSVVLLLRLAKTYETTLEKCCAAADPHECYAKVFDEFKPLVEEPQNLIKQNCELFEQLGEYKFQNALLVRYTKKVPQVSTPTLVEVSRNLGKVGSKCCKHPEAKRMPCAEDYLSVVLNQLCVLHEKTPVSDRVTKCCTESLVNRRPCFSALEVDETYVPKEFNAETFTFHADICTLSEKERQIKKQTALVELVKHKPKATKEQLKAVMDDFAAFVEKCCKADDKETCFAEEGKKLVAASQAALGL
Method: Retention times of the analytes were measured with Shimadzu HPLC system on the CHIRALPAK®HAS stationary phase (50 × 3 mm, 5 μm, Chiral Technologies, DAICEL Group, Europe SAS, France). The mobile phase A consisted of 50 mM aqueous ammonium acetate buffer (pH 7.4) and phase B of 2-propanol according to Valko et al.[65] Analysis was performed at prolonged 1 mL min^−1 flow rate in the linear gradient. Retention capacity factors (k′) were calculated by using DMSO or a substance with 0% HAS binding for systems' dead time (Rt0). The system was calibrated by injecting the reference compounds: acetylsalicylic acid (CAS 69-72-7), betamethasone (CAS 378-44-9), budesonide (CAS 5133-22-3), carbamazepine (CAS 298-46-4), cimetidine (CAS 51481-61-9), ciprofloxacin (CAS 85721-33-1), indomethacin (CAS 53-86-1), isoniazid (CAS 54-85-3), metronidazole (CAS 443-48-1), nicardipine (CAS 55985-32-5), nizatidine (CAS 76963-41-2) and warfarin (CAS 81-81-2) obtained from Sigma-Aldrich, diclofenac (CAS 15307-86-5) from EMD Chemicals Inc., flumazenil (CAS 78755-81-4) from ABX and ketoprofen (CAS 22071-15-4) from LKT Labs. The logarithmic capacity factors of the references' Rt (log(k′)) on the HSA column were plotted against the %PPB values from literature. The slope and the intercept were used to convert the log(k′) of the compounds (6a, c, f, h, m–o) to %PPB using the regression equation.[66]

[4] = tested on: SW480 cells; assay: Cell viability (MTT assay), SW480; format: cell-based; conditions: Homo sapiens, SW480, 96 h, 96 h treatment, read-out: GI50 ± SD SW480
Method: as §1, §2

[5] = Determination of HPLC–log P; format: physicochemical; conditions: reversed-phase HPLC on apHera C18 column; methanol / 0.01 M phosphate buffer pH 7.4; mean ± SD
Method: HPLC–log P values were determined using Shimadzu HPLC system equipped with apHera C18 column (10 × 6 mm, 5 μm, Supelco, Bellefonte, PA, USA). Each sample was dissolved in the internal standard mixture, consisting of triphenylene (99.9%, Carl Roth) and toluene (≥98%, Sigma-Aldrich). Analysis was performed at 1.5 mL min^−1 flow rate in the linear gradient where mobile phase consisted of methanol and 0.01 M phosphate buffer (pH 7.4). The HPLC–log P values were calculated from the measured retention times using previously published equation.[57]

Structure (SMILES) | melting point [°C] | GI50 [1] [µM] | GI50 [2] [µM] | fraction unbound [3] | GI50 [4] [µM] | chromatographic logP [5]
O=C(Cn1nc(-c2ccccc2)c(-c2ccccc2)c1C(=O)O)c1ccccc1 [6a′, 1-(2-Oxo-2-phenylethyl)-3,4-diphenyl-1H-pyrazole-5-carboxylic acid] | 209 to 210 |  |  |  |  | 
CCOC(=O)c1c(-c2ccccc2)c(-c2ccccc2)nn1CC(=O)c1ccccc1 [Compound 6a, Ethyl 1-(2-oxo-2-phenylethyl)-3,4-diphenyl-1H-pyrazole-5-carboxylate] | 112 to 113 | > 20 | 5.46 ± 0.393 | 0.046 | > 20 | 4.381 ± 0.002
CCOC(=O)c1c(-c2ccccc2)c(-c2ccccc2)nn1CC(=O)c1ccc(OC)cc1 [Compound 6b, Ethyl 1-[2-(4-methoxyphenyl)-2-oxoethyl]-3,4-diphenyl-1H-pyrazole-5-carboxylate] | 144 to 145 | > 20 | > 20 |  | > 20 | 4.468 ± 0.006
CCOC(=O)c1c(-c2ccccc2)c(-c2ccccc2)nn1CC(=O)c1ccc(Cl)cc1 [Compound 6d, Ethyl 1-[2-(4-chlorophenyl)-2-oxoethyl]-3,4-diphenyl-1H-pyrazole-5-carboxylate] | 135 to 136 | > 20 | 14.5 ± 3.92 |  | > 20 | 4.711 ± 0.006
CCOC(=O)c1c(-c2ccccc2)c(-c2ccccc2)nn1CC(=O)c1ccc(O)cc1 [Compound 6e, Ethyl 1-[2-(4-hydroxyphenyl)-2-oxoethyl]-3,4-diphenyl-1H-pyrazole-5-carboxylate] | 143 to 144 | > 20 | > 20 |  | > 20 | 3.803 ± 0.012
CCOC(=O)c1c(-c2ccc(OC)cc2)c(-c2ccc(OC)cc2)nn1CC(=O)c1ccccc1 [Compound 6f, Ethyl 3,4-bis(4-methoxyphenyl)-1-(2-oxo-2-phenylethyl)-1H-pyrazole-5-carboxylate] | 62 to 63 | > 20 | 2.29 ± 0.218 | 0.061 | > 20 | 4.462 ± 0.005
CCOC(=O)c1c(-c2ccc(OC)cc2)c(-c2ccc(OC)cc2)nn1CC(=O)c1ccc(OC)cc1 [Compound 6g, Ethyl 3,4-bis(4-methoxyphenyl)-1-[2-(4-methoxyphenyl)-2-oxoethyl]-1H-pyrazole-5-carboxylate] | 67 to 68 | > 20 | > 20 |  | > 20 | 4.531 ± 0.004
CCOC(=O)c1c(-c2ccc(OC)cc2)c(-c2ccc(OC)cc2)nn1CC(=O)c1ccc(F)cc1 [Compound 6h, Ethyl 1-[2-(4-fluorophenyl)-2-oxoethyl]-3,4-bis(4-methoxy-phenyl)-1H-pyrazole-5-carboxylate] | 104 to 105 | 4.76 ± 2.33 | 2.07 ± 1.45 | 0.062 | 4.76 ± 2.33 | 4.531 ± 0.006
CCOC(=O)c1c(-c2ccc(OC)cc2)c(-c2ccc(OC)cc2)nn1CC(=O)c1ccc(Cl)cc1 [Compound 6i, Ethyl 1-[2-(4-chlorophenyl)-2-oxoethyl]-3,4-bis(4-methoxy-phenyl)-1H-pyrazole-5-carboxylate] | 132 to 133 | > 20 | > 20 |  | > 20 | 4.784 ± 0.005
CCOC(=O)c1c(-c2ccccc2)c(-c2ccc(F)cc2)nn1CC(=O)c1ccccc1 [Compound 6j, Ethyl 3-(4-fluorophenyl)-1-(2-oxo-2-phenylethyl)-4-phenyl-1H-pyrazole-5-carboxylate] | 135 to 136 | 13.8 ± 0.861 | 3.75 ± 1.06 |  | 9.24 ± 2.15 | 4.49 ± 0.006
CCOC(=O)c1c(-c2ccc(F)cc2)c(-c2ccc(F)cc2)nn1CC(=O)c1ccccc1 [Compound 6k, Ethyl 3,4-bis(4-fluorophenyl)-1-(2-oxo-2-phenylethyl)-1H-pyrazole-5-carboxylate] | 103 to 104 | 11.1 ± 2.62 | 3.39 ± 0.62 |  | 7.81 ± 2.02 | 4.546 ± 0.005
CCOC(=O)c1c(-c2ccc(OC)cc2)c(-c2ccc(F)cc2)nn1CC(=O)c1ccccc1 [Compound 6l, Ethyl 3-(4-fluorophenyl)-4-(4-methoxyphenyl)-1-(2-oxo-2-phenylethyl)-1H-pyrazole-5-carboxylate] | 87 to 88 | > 20 | 5.05 ± 1.16 |  | 8.28 ± 2.34 | 4.499 ± 0.006
CCOC(=O)c1c(-c2ccc(OC)cc2)c(-c2ccc(F)cc2)nn1CC(=O)c1ccc(F)cc1 [Compound 6n, Ethyl 3-(4-fluorophenyl)-1-[2-(4-fluorophenyl)-2-oxoethyl]-4-(4-methoxyphenyl)-1H-pyrazole-5-carboxylate] | 81 to 82 | 6.78 ± 0.463 | 2.1 ± 0.198 | 0.047 | 1.64 ± 0.022 | 4.564 ± 0.004
COC(=O)c1c(-c2ccccc2)c(-c2ccccc2)nn1CC(=O)c1ccccc1 [Compound 7a, Methyl 1-(2-oxo-2-phenylethyl)-3,4-diphenyl-1H-pyrazole-5-carboxylate] | 138 to 139 | > 20 | > 20 |  | > 20 | 4.279 ± 0.005
COC(=O)c1c(-c2ccccc2)c(-c2ccccc2)nn1CC(=O)c1ccc(OC)cc1 [Compound 7b, Methyl 1-[2-(4-methoxyphenyl)-2-oxoethyl]-3,4-diphenyl-1H-pyrazole-5-carboxylate] | 163 to 164 | > 20 | > 20 |  | > 20 | 4.347 ± 0.007
COC(=O)c1c(-c2ccccc2)c(-c2ccccc2)nn1CC(=O)c1ccc(F)cc1 [Compound 7c, Methyl 1-[2-(4-fluorophenyl)-2-oxoethyl]-3,4-diphenyl-1H-pyrazole-5-carboxylate] | 114 to 115 | 9.72 ± 3.71 | 2.7 ± 0.689 |  |  | 4.327 ± 0.007
